PubChem BioAssay AID624359 (Broad Institute, 2012)
Results filed as inconclusive are left out. Activity calls are given as the source filed them.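 Rule for the calls: active = fitted curve reaches 35% inhibition at a concentration up to twice the top valid dose; inconclusive = no clear call, values can overlap the other calls; inactive = the rest, including signal moving the opposite way.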

Test system: not listed separately
Test: inhibitors of LMP1-driven NF-kB reporter, dose response, cell-based, EBV LMP1, luciferase, dry powder (AID 624359)
Details: HEK293 LMP1 TES2 NF-kB luciferase reporter, 16 h; at 12 µM (top of the series)

SMILES	activity change, negative = inhibition
C/C(=N\NC(=S)N1CCN(C2CCCCCC2)CC1)c1ccccn1	33.5% (inactive)

Same assay, conditions: HEK293 LMP1 TES2 NF-kB luciferase reporter, 16 h; at 15 µM (top of the series)

SMILES	activity change, negative = inhibition
C=C1C[C@]23C[C@@]1(O)CC[C@H]2[C@@]12C=C[C@H](O)[C@@](C)(C(=O)O1)[C@H]2[C@@H]3C(=O)O	-4.73% (inactive)

Same assay, conditions: HEK293 LMP1 TES2 NF-kB luciferase reporter, 16 h; at 26 µM (top of the series)

SMILES	activity change, negative = inhibition
O=c1[nH]c(Nc2nc3ccccc3o2)nc2c1CCCC2	2.84% (inactive)
C[C@@H]1CN([C@@H](C)CO)C(=O)c2cc(NC(=O)Nc3ccc(C(F)(F)F)cc3)ccc2O[C@@H](C)CCCCO[C@H]1CN(C)Cc1ccc(C(F)(F)F)cc1	24% (inactive)
C[C@H](CO)N1C[C@H](C)[C@@H](CN(C)CC2CCCCC2)OCCCC[C@H](C)Oc2ccc(NC(=O)Nc3cccc4ccccc34)cc2C1=O	23.2% (inactive)
C[C@@H]1CCCCO[C@H](CN(C)S(=O)(=O)c2ccccc2)[C@@H](C)CN([C@@H](C)CO)C(=O)c2cc(N(C)C)ccc2O1	-2.27% (inactive)
CC(=O)Nc1nc(C)c(-c2csc(Nc3ccc(O)cc3)n2)s1	83.3% (inactive)
C=CCN1Cc2ccccc2[C@@H]2OC(c3ccc(OCCCO)cc3)=N[C@]2(CCC(=O)OC(C)(C)C)C1=O	3.78% (inactive)
COc1ccccc1NC(=S)N/N=C(\C)c1ccccn1	-20.4% (inactive)
COc1ccc(-c2cc3nc4n(c(=O)c3s2)CCC4)cc1	20.7% (inactive)
Oc1cccc(C(Nc2nccs2)c2ccc3cccnc3c2O)c1 (stereo not given)	23.7% (inactive)
C[C@@H]1CN([C@@H](C)CO)C(=O)c2cccc(NC(=O)Nc3cccc4ccccc34)c2O[C@H]1CN(C)C(=O)Nc1ccc(C(F)(F)F)cc1	26.9% (inactive)
c1ccc(-c2cn3c4c(sc3n2)CCCC4)cc1	6.83% (inactive)
C/C(=N\NC(=S)Nc1cccc(C)c1)c1ccccn1	74.3% (inactive)
CCc1ccc(/C=C2\SC(=S)N(CCCC(=O)Nc3ccccn3)C2=O)cc1	9.57% (inactive)
Cc1c(NC(=O)c2cccc(NC(=O)COc3ccccc3C#N)c2)c(=O)n(-c2ccccc2)n1C	47.5% (inactive)
COc1ccc(C(=O)Nc2ccc3[nH]ccc3c2)cc1	13.6% (inactive)
C/C(=N\NC(=S)Nc1ccccc1Cl)c1ccccn1	51.4% (inactive)

SMILES	activity change, negative = inhibition
CCc1ccc(/C=C/C(=O)C2C(=O)c3ccccc3C2=O)cc1	28.8% (inactive)
C[C@@H]1CCCCO[C@H](CN(C)CC2CCCCC2)[C@H](C)CN([C@@H](C)CO)C(=O)c2cc(NC(=O)NC3CCCCC3)ccc2O1	-3.54% (inactive)
COc1ccc(-c2csc3ncnc(NCCN4CCOCC4)c23)cc1	9.04% (inactive)
Cc1ccc(S(=O)(=O)NC(CC(C)C)C(=O)NCC(c2ccco2)N2CCCCC2)cc1 (stereo not given)	-1.92% (inactive)
CC1=C(C(=O)OCc2ccc3c(c2)OCO3)C(c2ccc(F)cc2)NC(=O)N1 (stereo not given)	-13.4% (inactive)
O=C(CSc1nnc2c3ccccc3n(Cc3ccccc3)c2n1)NCc1ccco1	12.9% (inactive)
C/C(=N\NC(=S)N1CC2CCC(CC2)C1)c1ccncn1	-1.33% (inactive)
CCn1c2ccccc2c2cc(/C=N/n3cnnc3)ccc21	30.3% (inactive)
C[C@@H]1CCCCO[C@H](CN(C)C(=O)c2ccccc2)[C@H](C)CN([C@@H](C)CO)C(=O)c2cc(NC(=O)Nc3ccc(F)cc3)ccc2O1	-13.1% (inactive)
CNC[C@@H]1Oc2ccc(NS(=O)(=O)c3cn(C)cn3)cc2CC(=O)N([C@H](C)CO)C[C@@H]1C	7.33% (inactive)
C[C@@H]1CCCCO[C@@H](CN(C)Cc2ccccc2)[C@H](C)CN([C@H](C)CO)C(=O)c2cc(NC(=O)Nc3ccc4c(c3)OCO4)ccc2O1	-6.74% (inactive)
COc1ccc2nc(Nc3nc(C)c(CCC(C)C)c(=O)[nH]3)nc(C)c2c1	42.5% (inactive)
C[C@@H]1CCCCO[C@H](CN(C)C(=O)CCC(F)(F)F)[C@H](C)CN([C@@H](C)CO)C(=O)c2cc(NC(=O)CCC(F)(F)F)ccc2O1	-12.3% (inactive)
CC1CN(C(=O)CSc2nnc3c4ccccc4n(Cc4cccc(Cl)c4)c3n2)CCN1C(=O)c1ccccc1F (stereo not given)	42.2% (inactive)
CSc1nc(-c2ccc(C)cc2)nc(C(Cl)Cl)n1	12% (inactive)
CSC(=S)N/N=C(\C)c1cccc(C)n1	8.74% (inactive)

Test system: HEK293 LMP1 TES2 NF-kB luciferase reporter, 16 h
Test: as above
Details: not given

SMILES	AC35
CCC(Sc1nnc2c3ccccc3n(Cc3ccc(Br)cc3)c2n1)C(=O)NCCCN1CCOCC1 (stereo not given)	5.65 µM
COCCCNC(=O)C(C)Sc1nnc2c3cc(C)ccc3n(Cc3ccccc3F)c2n1 (stereo not given)	25.8 µM
O=c1[nH]c(=O)n([C@H]2C[C@H](O)[C@@H](CO)O2)cc1C(F)(F)F	8.74 µM
COc1ccc2[nH]c(C(=O)N/N=C/c3ccc(O)cc3O)cc2c1	9.11 µM
C[C@@H]1CN([C@@H](C)CO)C(=O)c2cc(NC(=O)Nc3ccc4c(c3)OCO4)ccc2O[C@H]1CN(C)CC1CCCCC1	0.738 µM
C[C@H](CO)N1C[C@H](C)[C@@H](CN(C)CC2CC2)OCCCC[C@H](C)Oc2ccc(NC(=O)Nc3cccc4ccccc34)cc2C1=O	0.541 µM
C/C(=N\NC(=S)N1CCCC1)c1ccccn1	0.884 µM
O=C(Nc1cc(C(F)(F)F)cc(C(F)(F)F)c1)Nc1cnn(-c2ccc([N+](=O)[O-])cc2)c1C(F)(F)F	40.7 µM
c1ccc(Cn2c3ccccc3c3nnc(SCCN4CCCCC4)nc32)cc1	11 µM
Fc1ccc2c(c1)c1nnc(SCCN3CCOCC3)nc1n2Cc1ccccc1	10.1 µM
Cc1ccc(NC(=O)C2CCN(S(=O)(=O)c3ccc4c(c3)NC(=O)C(C)S4)CC2)cc1Cl (stereo not given)	4.01 µM
C/C(=N\NC(=S)N1CCN(c2ccccn2)CC1)c1ccccn1	10.5 µM
C/C(=N\NC(=S)N1CC2CCC(CC2)C1)c1ccccn1	5.42 µM
C[C@H](CO)N1C[C@H](C)[C@H](CN(C)C(=O)Nc2ccc(C(F)(F)F)cc2)OCCCC[C@H](C)Oc2ccc(NC(=O)Nc3ccc(F)cc3)cc2C1=O	16.6 µM
S=C(N/N=C(\c1ccccc1)c1ccccn1)N(Cc1ccccn1)Cc1ccccn1	6 µM
COc1ccccc1[C@]1(C)ON(c2ccccc2C(F)(F)F)C1=O	7.88 µM

SMILES	AC35
CCN1CCN(C(c2cccnc2)c2cc(Cl)c3cccnc3c2O)CC1 (stereo not given)	7.4 µM
Cc1ccc(S(=O)(=O)Nc2ccc3c(c2)C(=O)N([C@@H](C)CO)C[C@H](C)[C@@H](CN(C)C(=O)CCC(F)(F)F)OCCCC[C@H](C)O3)cc1	0.619 µM
CCCSc1nnc2c3ccccc3n(Cc3ccccc3)c2n1	3.4 µM
CC(C)=CCN(C(=O)C#Cc1ccccc1)[C@H](CO)c1ccccc1	3.79 µM
O=C1/C(=C/c2ccncc2)SC(=S)N1Cc1ccccc1	29 µM
S=C(NCc1ccccn1)N/N=C/c1ccccn1	5.41 µM
CCc1sc(C(=O)Nc2ncccc2O)cc1C	20.8 µM
Nc1ccn([C@@H]2O[C@H](CO)[C@@H](O)C2O)c(=O)n1 (stereo not given in full)	27.5 µM
CC12CCC3C(CC=C4CC(O)CCC43CO)C1CCC2OC(=O)c1ccccc1 (stereo not given)	6.56 µM
C[C@H](CO)N1C[C@H](C)[C@@H](CN(C)Cc2ccc(-c3ccccc3)cc2)Oc2ccc(NC(=O)Nc3cccc4ccccc34)cc2CC1=O	4.13 µM
O=C(CCc1ccccc1)NC(c1cccs1)c1cc(Cl)c2cccnc2c1O (stereo not given)	43.9 µM
C/C=C/C/C=C/CCC(=O)[C@H]1O[C@H]1C(N)=O	13.2 µM
C/C(=N\NC(=S)N1CCC1)c1ccccn1	1.33 µM
C/C(=N\NC(=S)N1CCCCC1)c1cccc(C)n1	0.492 µM
COc1cccc(/C=N/Nc2ncnc3c2ncn3Cc2ccccc2)c1O	43.4 µM
